From ChEMBL document CHEMBL2401647, “High potency improvements to weak aryl uracil HCV polymerase inhibitor leads” (Bioorg Med Chem Lett, 2013) come the findings set out here.

Converted amounts (≈) assume the structure as drawn. Bounds are passed on as bounds.

The EC50 is the concentration that produces a half-maximal response. Read a low EC50 as a more potent agent. For orientation: IC50 means the point on the concentration scale where inhibition reaches its midpoint. Low readings indicate greater potency, high ones weaker potency. Usually solubility stands for the concentration that dissolves in the medium under given conditions. For orientation: AUC means the area under the concentration-time curve, a measure of exposure. Low values mean less exposure, high ones more exposure. The term half-life denotes the time in which the quantity being followed falls by half. The low end stands for rapid decline, the high end for slow decline. As a reminder, the bioavailability is dose-corrected exposure relative to a reference, in per cent.

Series [1] in a line: Cytotoxicity against human HuH7 cells. Format: cell-based. The following applies: Huh-7 cells, read-out: TD50 (the source's name).
Series [2] concerns Hepatitis C virus. Put plainly: Antiviral activity against Hepatitis C virus genotype 1b infected in human HuH7 cells. It counts as functional, organism-based, Hepacivirus hominis. As to conditions: Huh-7.
The test system of series [3] is Hepatitis C virus. Put plainly: Antiviral activity against Hepatitis C virus genotype 1a infected in human HuH7 cells. It counts as functional, organism-based, Hepacivirus hominis. The following applies: subtype 1a, Huh-7.
The subject of series [4] is Hepatitis C virus. Put plainly: Inhibition of Hepatitis C virus genotype 1b NS5B polymerase. Further details: species or system Hepatitis C virus subtype 1b.
The nature of series [5]: Inhibition of Hepatitis C virus genotype 1a NS5B polymerase. Details: species or system Hepatitis C virus subtype 1a.
Series [6] in a line: Permeability of the compound. It counts as ADME. As to conditions: not told; read-out: permeability.
A short description of series [7]: Solubility of the compound. Format: physicochemical.
Series [8] in a line: AUC in rat. Format: ADME, organism-based. The following applies: plasma.
Series [9] is described as follows: AUC in po dosed rat. Format: ADME, organism-based. As to conditions: plasma.
Series [10] in a line: Half life in iv dosed rat. As to conditions: in vivo. Format: ADME, organism-based.
The nature of series [11]: Oral bioavailability in rat. Format: ADME, organism-based. The following applies: in vivo.

`CC(C)(C)c1cc(N2CCC(=O)NC2=O)cc(C(=O)Nc2cccc(NS(C)(=O)=O)c2)c1O`: in series [1], the CC50 is greater than 50000 nM. In addition, the EC50 with Hepatitis C virus [2] was determined as 7560 nM; in the series on Hepatitis C virus [3] it was 27800 nM. Besides, the figures for the 50% inhibitory concentration (IC50) (in the series with Hepatitis C virus [4]; in series [5]) were 50 nM and 360 nM, respectively.

`CC(C)(C)c1cc(-n2ccc(=O)[nH]c2=O)cc(C(=O)Nc2ccc(NS(C)(=O)=O)cc2)c1O`: the EC50 in the series on Hepatitis C virus [2] is 94 nM; with Hepatitis C virus [3], 590 nM. Besides, the IC50 with Hepatitis C virus [4] came to 10 nM; in series [5], 38 nM.

Take `CC(C)(C)c1cc(N2CCC(=O)NC2=O)cc(C(=O)Nc2ccccc2)c1O`: the concentration giving a half-maximal response (EC50) came to 6310 nM in the series on Hepatitis C virus [2] and 18600 nM with Hepatitis C virus [3]. For the same compound, the figures for the IC50 (with Hepatitis C virus [4]; in [5]) were 230 nM and 4280 nM, respectively.

As for `CC(C)(C)c1cc(N2CCC(=O)NC2=O)cc(C(=O)Nc2ccc(OS(C)(=O)=O)cc2)c1O`, the CC50 in series [1] is greater than 50000 nM. Also, the EC50 amounted to 1130 nM with Hepatitis C virus [2] and 4650 nM in the series on Hepatitis C virus [3]. The IC50 amounted to 30 nM in the series with Hepatitis C virus [4] and 180 nM in series [5].

On to `COc1c(C(=O)Nc2ccc(NS(C)(=O)=O)cc2)cc(N2CCC(=O)NC2=O)cc1C(C)(C)C`, for which the Papp in [6] was 0.5 ×10⁻⁶ cm/s. Moreover, the concentration in solution in [7] (solubility) came to 2 µM (≈ 0.977 µg/mL). Moreover, the AUC in [8] came to 3380 ng·h/mL; in series [9], 50 ng·h/mL. This compound had a half-life in series [10] of 66 min. The same compound registered a bioavailability in [11] of 1.5%. Moreover, the EC50 came to 20 nM in the series on Hepatitis C virus [2] and 60 nM with Hepatitis C virus [3]. The values for the IC50 (in the series with Hepatitis C virus [4]; in [5]) were 20 nM and 10 nM, respectively.

Turning to `COc1c(C(=O)Nc2ccc(N(C)S(C)(=O)=O)cc2)cc(N2CCC(=O)NC2=O)cc1C(C)(C)C`, in series [1], the CC50 was greater than 50000 nM. Further, the EC50 came out at 560 nM with Hepatitis C virus [2] and 5490 nM with Hepatitis C virus [3]. In addition, the IC50 with Hepatitis C virus [4] was found to be 830 nM; in [5], 770 nM.

In the case of `CC(C)(C)c1cc(N2CCC(=O)NC2=O)cc(C(=O)Nc2ccc(NS(=O)(=O)CCN3CCOCC3)cc2)c1O`, the EC50 came to 420 nM in the series on Hepatitis C virus [2] and 1960 nM with Hepatitis C virus [3]. Besides, the values for the IC50 (with Hepatitis C virus [4]; in [5]) were 7 nM and 50 nM, respectively.

In the case of `CN(c1ccc(NC(=O)c2cc(N3CCC(=O)NC3=O)cc(C(C)(C)C)c2O)cc1)S(C)(=O)=O`, the CC50 in series [1] was greater than 50000 nM. Further, the results for the EC50 with Hepatitis C virus [2] and in the series with Hepatitis C virus [3] were 1040 nM and 3550 nM, respectively. The concentration for half-maximal inhibition (IC50) in the series on Hepatitis C virus [4] was 30 nM; in [5], 460 nM.

For `CC(C)(C)c1cc(N2CCC(=O)NC2=O)cc(C(=O)Nc2ccc(NS(C)(=O)=O)cc2)c1O`, the 50% effective concentration (EC50) is 50 nM in the series on Hepatitis C virus [2] and 390 nM in the series with Hepatitis C virus [3]. In addition, the IC50 with Hepatitis C virus [4] worked out at 2 nM; in series [5], 20 nM.

As to `COc1c(C(=O)Nc2ccc(NS(C)(=O)=O)cc2)cc(-n2ccc(=O)[nH]c2=O)cc1C(C)(C)C`, in series [6], the Papp turned out to be 0.2 ×10⁻⁶ cm/s. In series [7], this compound gave a solubility of 13 µM (≈ 6.33 µg/mL). For the same compound, the EC50 with Hepatitis C virus [2] turned out to be 50 nM; with Hepatitis C virus [3], 270 nM. In addition, the IC50 in the series with Hepatitis C virus [4] was found to be 30 nM; in series [5], 20 nM.

For the compound `CC(C)(C)c1cc(N2CCC(=O)NC2=O)ccc1O`, the EC50 in the series on Hepatitis C virus [2] and with Hepatitis C virus [3] was greater than 100000 nM throughout. Besides, the results for the IC50 (in the series on Hepatitis C virus [4]; in series [5]) were 23000 nM and 71000 nM, respectively.

For the compound `COc1c(C(=O)Nc2ccc(OS(C)(=O)=O)cc2)cc(N2CCC(=O)NC2=O)cc1C(C)(C)C`, in [1], the CC50 was greater than 50000 nM. Also, the EC50 in the series on Hepatitis C virus [2] turned out to be 860 nM; in the series with Hepatitis C virus [3], 3400 nM. Also, the IC50 in the series with Hepatitis C virus [4] is 1040 nM; in series [5] it was 670 nM.

Take `COc1c(C(=O)Nc2ccccc2)cc(N2CCC(=O)NC2=O)cc1C(C)(C)C`: the Papp in series [6] turned out to be 1.4 ×10⁻⁶ cm/s. Further, the concentration in solution in series [7] (solubility) came to 12 µM (≈ 4.75 µg/mL). Also, the values for the AUC in [8] and in [9] were 2190 ng·h/mL and 330 ng·h/mL, respectively. Besides, the half-life in series [10] is 30 min. Moreover, the bioavailability in series [11] worked out at 15%. Further, the figures for the EC50 in the series with Hepatitis C virus [2] and in the series with Hepatitis C virus [3] were 1030 nM and 3670 nM, respectively. Besides, the IC50 was found to be 750 nM with Hepatitis C virus [4] and 890 nM in series [5].

Turning to `COc1ccc(N2CCC(=O)NC2=O)cc1C(C)(C)C`, the Papp in series [6] was found to be 5.5 ×10⁻⁶ cm/s. The compound also returned a solubility in [7] of 73 µM (≈ 20.2 µg/mL). Besides, the AUC was determined as 12400 ng·h/mL in series [8] and 5570 ng·h/mL in series [9]. In addition, in series [10], the half-life is 228 min. This compound showed a bioavailability in series [11] of 45%. Also, the EC50 in the series on Hepatitis C virus [2] and in the series on Hepatitis C virus [3] was greater than 100000 nM in each case. In [5], this compound showed a 50% inhibitory concentration (IC50) of 26000 nM.

For `COc1c(C(=O)Nc2ccc(N)cc2)cc(N2CCC(=O)NC2=O)cc1C(C)(C)C`, the EC50 in the series with Hepatitis C virus [2] is 4240 nM; with Hepatitis C virus [3] it was greater than 50000 nM. For the same compound, the IC50 was found to be 1240 nM in the series on Hepatitis C virus [4] and 2060 nM in [5].

Consider `CC(C)(C)c1cc(N2CCC(=O)NC2=O)cc(C(=O)NCc2ccccc2)c1O`, for which the EC50 with Hepatitis C virus [2] was 15300 nM; in the series with Hepatitis C virus [3], 14200 nM. In addition, the IC50 with Hepatitis C virus [4] was 940 nM; in series [5], 8590 nM.

Consider `COc1c(C(=O)Nc2ccc(NC(C)=O)cc2)cc(N2CCC(=O)NC2=O)cc1C(C)(C)C`, for which the values for the IC50 (in the series on Hepatitis C virus [4]; in series [5]) were 5120 nM and 3420 nM, respectively.

Turning to `COc1c(C(=O)Nc2ccc(NS(=O)(=O)CCN3CCOCC3)cc2)cc(N2CCC(=O)NC2=O)cc1C(C)(C)C`, the Papp in series [6] turned out to be 0.1 ×10⁻⁶ cm/s. Moreover, in series [7], the concentration in solution (solubility) was 74 µM (≈ 43.5 µg/mL). Besides, in series [8], the AUC was determined as 2540 ng·h/mL. Besides, in series [10], the half-life was 36 min. Also, the bioavailability in series [11] is 0%. For the same compound, the results for the half-maximal effective concentration (EC50) with Hepatitis C virus [2] and in the series with Hepatitis C virus [3] were 580 nM and 5310 nM, respectively. Moreover, the half-maximal inhibitory concentration (IC50) in the series with Hepatitis C virus [4] turned out to be 310 nM; in series [5] it was 110 nM.
